Format in all cases: in vivo
Holding throughout (settings): Rate 250 ppm

One experiment relates to Alternaria solani. Put plainly: Test F: preventive spray on tomato seedlings, tomato early blight. An excerpt:
(§1) General protocol for preparing test suspensions for Tests A-F: the test compounds were first dissolved in acetone in an amount equal to 3% of the final volume and then suspended at the desired concentration (in ppm) in acetone and purified water (50/50 mix by volume) containing 250 ppm of the surfactant PEG400 (polyhydric alcohol esters). The resulting test suspensions were then used in Tests A-F.
The test suspension was sprayed to the point of run-off on tomato seedlings. The following day the seedlings were inoculated with a spore suspension of Alternaria solani (the causal agent of tomato early blight) and incubated in a saturated atmosphere at 27° C. for 48 h, and then moved to a growth chamber at 20° C. for 3 days, after which time visual disease ratings were made.
(§2) A rating of 100 indicates 100% disease control and a rating of 0 indicates no disease control (relative to the controls). A dash (-) indicates the compound was not tested.

Another experiment relates to Zymoseptoria tritici. Put plainly: Test A: preventive spray on wheat seedlings, wheat leaf blotch.
Source text: as §1
The test solution was sprayed to the point of run-off on wheat seedlings. The following day the seedlings were inoculated with a spore suspension of Zymoseptoria tritici (the causal agent of wheat leaf blotch) and incubated in a saturated atmosphere at 24° C. for 48 h, and then moved to a growth chamber at 20° C. for 17 days, after which time disease ratings were made.
as §2

In another experiment the test system is Phakopsora pachyrhizi. The experiment can be described thus: Test D: preventive spray on soybean seedlings, Asian soybean rust. A digest of the protocol: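 Soybean seedlings sprayed to run-off with compound suspension (ppm, in 50/50 acetone/water with 250 ppm PEG400), inoculated next day with P. pachyrhizi spores, held 24 h saturated at 22°C then 8 days at 22°C. Visual rating 0-100% disease control relative to controls.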

Another experiment deals with Botrytis cinerea. Put plainly: Test E: preventive spray on tomato seedlings, tomato Botrytis.
Source text: as §1
The test suspension was sprayed to the point of run-off on tomato seedlings. The following day the seedlings were inoculated with a spore suspension of Botrytis cinerea (the causal agent of tomato Botrytis) and incubated in a saturated atmosphere at 20° C. for 48 h, and then moved to a growth chamber at 24° C. for 3 days, after which time visual disease ratings were made.
as §2

In experiment [1] the test system is Puccinia recondita f. sp. tritici. Put plainly: Test B: preventive spray on wheat seedlings, wheat leaf rust. In short, it runs like this: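 Compound in acetone (3% of final volume) was suspended at the stated ppm in acetone/water 50/50 with 250 ppm PEG400 and sprayed to run-off on wheat seedlings. Puccinia recondita spores were inoculated next day, then 24 h saturated atmosphere at 20 °C and 7 days at 20 °C. Rated 0–100% disease control versus controls.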

Experiment [2] concerns Blumeria graminis f. sp. tritici. Put plainly: Test C: preventive spray on wheat seedlings, wheat powdery mildew.
Source text: as §1
The test suspension was sprayed to the point of run-off on wheat seedlings. The following day the seedlings were inoculated with a spore dust of Blumeria graminis f. sp. tritici, (also known as Erysiphe graminis f. sp. tritici, the causal agent of wheat powdery mildew) and incubated in a growth chamber at 20° C. for 8 days, after which time visual disease ratings were made.
as §2

With `COC(=O)NCc1cc(-c2cn(-c3c(F)cc(F)cc3Cl)nn2)ccc1C` [compound 122], the “Test F disease control rating” value in the experiment with Alternaria solani came to 0%. Moreover, the “Test A disease control rating” value with Zymoseptoria tritici is reported as 71%. Moreover, in the experiment on Phakopsora pachyrhizi, the “Test D disease control rating” value turned out to be 100%. Besides, the “Test E disease control rating” value in the experiment on Botrytis cinerea was determined as 0%. Further, the “Test B disease control rating” value in experiment [1] was 99%. Also, the “Test C disease control rating” value in experiment [2] came out at 0%.

The record behind these values is patent publication US20230165251A1, “SUBSTITUTED TOLYL FUNGICIDES AND THEIR MIXTURES” (FMC Corporation, priority 2020, published 2023).
